# Laboratory results: ChEMBL document CHEMBL1141583, “Chemotherapeutic bone-targeted bisphosphonate prodrugs with hydrolytic mode of activation” (Bioorg Med Chem Lett, 2008)
# Experiments:
# [1] = Chemical stability in phosphate buffer saline at pH 7.4; format: physicochemical
# [2] = test system: Jurkat; assay: Growth inhibition of human Jurkat cells after 96 hrs; format: functional, cell-based
half-life [1],SMILES,IC50 [2]
90 h,COc1cc(COC(=O)NC(Cc2c[nH]c3ccccc23)C(=O)O)cc(OC)c1OC(=O)OCCCCCCC(P(=O)(O)O)P(=O)(O)O (stereo not drawn) [TRYPDRONATE],–
–,CC[C@@]1(O)C(=O)OCc2c1cc1n(c2=O)Cc2cc3ccccc3nc2-1 [CAMPTOTHECIN],1.4 nM
–,CC[C@@]1(OC(=O)CCC(P(=O)(O)O)P(=O)(O)O)C(=O)OCc2c1cc1n(c2=O)Cc2cc3ccccc3nc2-1 [CAMDRONATE],21 nM
